From the NIST ThermoML archive (doi:10.1021/acs.jced.9b00564)
± gives the expanded uncertainty stated by the source.

Experiments:
[1] = Molar enthalpy of transition or fusion; conditions: Crystal; DSC
[2] = Crystal; DSC

O=[N+]([O-])c1ncccc1O [2-nitropyridin-3-ol]
Molar enthalpy of transition or fusion [1]: 5.27 ± 0.182 kcal/mol | Triple point temperature [2]: 342.77 ± 1.2 K
